Source: ChEMBL document CHEMBL4431301, “The Medicinal Chemistry of Dengue Virus” (J Med Chem, 2016)
Where a SMILES comes first, the peptide text is derived from it.

Tests used:
[1] = test system: dengue virus type 3; assay: Antiviral activity against Dengue virus 3 H87 infected in african green monkey Vero cells assessed as blockage of viral entry after 72 hrs by foci-forming assay; type: functional, organism-based
[2] = test system: dengue virus type 4; assay: Antiviral activity against Dengue virus 4 H241 infected in african green monkey Vero cells assessed as blockage of viral entry after 72 hrs by foci-forming assay; type: functional, organism-based
[3] = test system: dengue virus type 2; assay: Antiviral activity against Dengue virus 2 16681 infected in african green monkey Vero cells assessed as blockage of viral entry after 72 hrs by foci-forming assay; type: functional, organism-based; conditions: Dengue virus, 16681, Vero
[4] = test system: dengue virus type 1; assay: Antiviral activity against Dengue virus 1 Hawaii infected in african green monkey Vero cells assessed as blockage of viral entry after 72 hrs by foci-forming assay; type: functional, organism-based
[5] = test system: dengue virus type 2; assay: Antiviral activity against Dengue virus 2 NGC infected in BHK21 cells assessed as reduction in viral titer after 3 days by RT-PCR method; type: functional, organism-based; conditions: BHK-21, 72 h
[6] = Cytotoxicity against BHK21 cells assessed as cell viability after 3 days by CellTiter Glo assay; type: cell-based, Mesocricetus auratus, BHK-21; conditions: hamster
[7] = Inhibition of envelope protein mediated membrane fusion in Dengue virus TSV01 infected in mosquito C6/36 cells after 1 hr by propidium iodide staining based fluorescence assay; type: cell-based; conditions: TSV01, C6/36, 1 h
[8] = Inhibition of envelope protein mediated membrane fusion in Dengue virus TSV01 infected in mosquito C6/36 cells assessed as trypsin degradation after 1 hr by SDS-PAGE method; type: cell-based; conditions: TSV01, C6/36, 1 h
[9] = test system: dengue virus type 1; assay: Antiviral activity against Dengue virus 1 infected in monkey LLC-MK2 cells assessed as reduction in viral infection at 2 to 5 uM by focus forming unit assay; type: functional; design: scale not given: the % may be the effect or the level left
[10] = test system: dengue virus type 2; assay: Antiviral activity against Dengue virus 2 infected in monkey LLC-MK2 cells assessed as reduction in viral infection at 2 to 5 uM by focus forming unit assay; type: functional; design: scale not given: the % may be the effect or the level left
[11] = test system: dengue virus type 4; assay: Antiviral activity against Dengue virus 4 infected in monkey LLC-MK2 cells assessed as reduction in viral infection at 2 to 5 uM by focus forming unit assay; type: functional; design: scale not given: the % may be the effect or the level left
[12] = test system: dengue virus type 3; assay: Antiviral activity against Dengue virus 3 infected in monkey LLC-MK2 cells assessed as reduction in viral infection at 2 to 5 uM by focus forming unit assay; type: functional; design: scale not given: the % may be the effect or the level left
[13] = test system: dengue virus type 2; assay: Antiviral activity against Dengue virus 2 NGC infected in african green monkey Vero cells preincubated with virus for 5 mins followed by cell infection for 5 mins by immunofluorescence analysis; type: functional, organism-based
[14] = target: DEN4V NS2B-G4SG4NS3 serine protease (Dengue virus type 4, UniProt P09866); assay: Non-competitive inhibition of Dengue virus 4 NS3 helicase
[15] = test system: dengue virus type 2; assay: Antiviral activity against Dengue virus 2 NGC infected in monkey LLC-MK2 cells preincubated with virus for 1 hr followed by cell infection for 1 hr by focus forming unit assay; type: functional, organism-based
[16] = target: T1, Genome polyprotein (dengue virus type 2, UniProt P29990); assay: Inhibition of recombinant Dengue virus 2 S-16803 NS2B-NS3 protease using Bz-nKRRAMC as substrate preincubated with enzyme followed by substrate addition measured after 20 mins by fluorescence assay
[17] = target: T1, Genome polyprotein; assay: Inhibition of Dengue virus 2 NS2B-NS3 protease expressed in Escherichia coli BL21(DE3) using Boc-Gly-Arg-Arg-7-amino-4-methylcoumarin as substrate after 10 mins by fluorescence assay
[18] = target: T1, Genome polyprotein; assay: Inhibition of Dengue virus 2 GFP/DsRed fused NS2B-NS3 protease co-transfected in HEK293T cells by Western blot analysis; type: cell-based
[19] = test system: dengue virus type 2; assay: Antiviral activity against Dengue virus 2 infected in african green monkey Vero cells preincubated with cells followed by viral infection measured after 4 days by immunofluorescence staining based fluorescence microscope; type: functional, organism-based

With `CC[C@H](C)[C@H](NC(=O)[C@H](Cc1c[nH]c2ccccc12)NC(=O)[C@@H](NC(=O)[C@H](CCC(=O)O)NC(=O)[C@@H](NC(=O)[C@H](CCCNC(=N)N)NC(=O)[C@H](CCC(N)=O)NC(=O)[C@@H](NC(=O)[C@H](Cc1cnc[nH]1)NC(=O)[C@H](CCCCN)NC(=O)[C@H](Cc1c[nH]c2ccccc12)NC(=O)[C@H](C)NC(=O)CNC(=O)[C@H](CCC(=O)O)NC(=O)[C@H](CO)NC(=O)[C@H](CO)NC(=O)[C@H](CCSC)NC(=O)[C@H](Cc1c[nH]c2ccccc12)NC(=O)[C@@H](NC(=O)[C@H](CCC(=O)O)NC(=O)[C@@H](NC(=O)[C@H](CCCNC(=N)N)NC(=O)[C@@H](NC(=O)[C@H](CCC(=O)O)NC(=O)[C@H](CC(C)C)NC(=O)CNC(=O)[C@H](CCSC)NC(=O)CNC(=O)[C@@H](NC(=O)[C@H](Cc1cnc[nH]1)NC(=O)[C@@H]1CCCN1C(=O)[C@@H](NC(=O)[C@H](CC(C)C)NC(=O)[C@H](C)NC(=O)[C@@H](NC(=O)[C@@H](N)CO)C(C)C)C(C)C)C(C)C)[C@@H](C)O)[C@@H](C)O)[C@@H](C)O)C(C)C)[C@@H](C)CC)[C@H](C)O)C(=O)N[C@@H](CC(C)C)C(=O)N[C@@H](CCCNC(=N)N)C(=O)N[C@@H](Cc1cnc[nH]1)C(=O)N1CCC[C@H]1C(=O)NCC(=O)O` the EC50 [1] was 24 to 31 µM, the EC50 [2] was 24 to 31 µM and the EC50 [3] was 24 to 31 µM. For the same compound, the EC50 [4] was 24 to 31 µM.
With `O=C(O)c1cc(=O)c2ccc(S[C@@H](/C=C/C=C\CCOc3ccc(Cl)c(Cl)c3)[C@H](O)c3cccc(C(F)(F)F)c3)cc2o1` the EC50 [5] was 9.8 µM, the CC50 at 72 h [6] was 48.7 µM and the IC50 [7] was 6.8 µM. The IC50 [8] was 6.8 µM.
`CC[C@H](C)[C@H](NC(=O)[C@H](C)NC(=O)CNC(=O)[C@H](Cc1ccccc1)NC(=O)[C@@H](NC(=O)[C@H](CCC(N)=O)NC(=O)[C@H](Cc1cnc[nH]1)NC(=O)[C@H](CC(C)C)NC(=O)[C@H](C)NC(=O)[C@H](CCCCN)NC(=O)CNC(=O)[C@@H](NC(=O)[C@H](CO)NC(=O)[C@@H](NC(=O)[C@H](Cc1ccccc1)NC(=O)[C@@H](NC(=O)CNC(=O)CNC(=O)[C@H](CC(C)C)NC(=O)[C@H](CO)NC(=O)CNC(=O)[C@H](Cc1ccccc1)NC(=O)[C@H](CC(=O)O)NC(=O)[C@H](Cc1c[nH]c2ccccc12)NC(=O)[C@H](C)NC(=O)[C@@H](NC(=O)[C@H](CC(=O)O)NC(=O)CNC(=O)[C@H](CC(C)C)NC(=O)[C@@H](NC(=O)[C@H](C)NC(=O)[C@@H](N)CCSC)[C@@H](C)CC)[C@@H](C)O)C(C)C)[C@@H](C)O)[C@@H](C)CC)C(C)C)C(=O)N[C@@H](Cc1ccc(O)cc1)C(=O)O` (H-MAILGDTAWDFGSLGGVFTSIGKALHQVFGAIY-OH) gave an Activity [9] of 50%, an Activity [10] of 50% and an Activity [11] of 50%. For the same compound, the Activity [12] was 50%.
Work on `Cc1ccc(C(=O)Nc2ccc(S(=O)(=O)O)c3cc(S(=O)(=O)O)cc(S(=O)(=O)O)c23)cc1NC(=O)c1cccc(NC(=O)Nc2cccc(C(=O)Nc3cc(C(=O)Nc4ccc(S(=O)(=O)O)c5cc(S(=O)(=O)O)cc(S(=O)(=O)O)c45)ccc3C)c2)c1` [SURAMIN] yielded an EC50 [13] of 40 µM and a Ki [14] of 750 nM.
With `CC[C@H](C)[C@H](NC(=O)[C@H](CC(C)C)NC(=O)[C@@H](NC(=O)[C@H](Cc1ccccc1)NC(=O)[C@H](Cc1c[nH]c2ccccc12)NC(=O)[C@@H](N)Cc1ccccc1)[C@@H](C)O)C(=O)N[C@@H](CCCCN)C(=O)N[C@H](C(=O)N[C@@H](CCC(N)=O)C(=O)N[C@@H](C)C(=O)N[C@@H](CCCCN)C(=O)N[C@@H](CCC(N)=O)C(=O)N1CCC[C@H]1C(=O)N[C@@H](C)C(=O)N[C@@H](CCCNC(=N)N)C(=O)N[C@@H](Cc1ccc(O)cc1)C(=O)N[C@@H](CCCNC(=N)N)C(=O)N[C@@H](CCCNC(=N)N)C(=O)N[C@@H](Cc1ccccc1)C(=O)N[C@@H](CS)C(=O)O)[C@@H](C)O` (H-FWFTLIKTQAKQPARYRRFC-OH) the IC50 [15] was 7 µM.
For `N#C/C(=C\c1ccc(-c2ccc(C(=O)O)cc2)s1)c1nc2cc(Cl)ccc2[nH]1`, the IC50 [16] was 5.95 µM.
Compound `O=C(Nc1nc2cc(O)c(O)cc2s1)c1ccccc1Oc1ccc2cc(O)ccc2c1` has an IC50 [17] of 4.2 µM, an IC50 [18] of 3.2 µM and an EC50 [19] of 800 nM.
